# Test results taken from paper PMC12401824, “Studies on the impact of modifications at the Gln-Trp site in RM2-based GRPR ligands” (EJNMMI Research, 2025).
# Where two headings read alike, the source gives them in different places. Starred links: 1 amine or outer side, 2 acyl side, 3 side chain; linkers in the order of their positions; H or OH if unused. Non-standard residues stand in square brackets, D forms with d. Residues, ends and D or L forms follow the SMILES beside them. *: point of attachment. DOTA = O=C(O)CN1CCN(CC(=O)O)CCN(CC(=O)*)CCN(CC(=O)O)CC1; Sta = CC(C)C[C@H](N)[C@@H](O)CC(=O)O; Bta = N[C@@H](Cc1csc2ccccc12)C(=O)O; X1 = O=C(CN1CCC(N[*:1])CC1)[*:2]; hSer = N[C@@H](CCO)C(=O)O
# Tests used:
# PC-3 tumor xenograft = assay: Biodistribution in PC-3 tumor-bearing CB17-SCID mice; type: in vivo; settings: ^68Ga-labeled; 1 h p.i.; n = 4
# Experimental: (§1) To establish tumor xenografts, PC-3 cells (5.0 × 10^6 cells per 200 µL) were suspended in a 1/1 mixture (v/v) of Dulbecco’s modified eagle's medium/Ham’s F-12 with Glutamax-I (v/v = 1/1) and Cultrex® Basement Membrane Matrix Type 3 (Trevigen Inc., Gaithersburg, MD, USA) and inoculated subcutaneously onto the right shoulder of CB17-SCID mice (Charles River Laboratories International Inc., Sulzfeld, Germany). Mice (n = 4) were used for experiments when tumor volume has reached 125–500 mm^3 (2–3 weeks after inoculation).
# (§2) Biodistribution. […] (n = 4), respectively. Selected organs were removed, weighted and measured in a γ-counter.
# [1] = as above; type: in vivo; settings: mouse, 100 pmol, ^68Ga-labeled, 1 h p.i., n = 4; for tissue to tissue ratio at 1 h: CB17-SCID, iv, total radioactivity; for tissue uptake at 1 h: intravenous
# Experimental: as §1, §2
# [2] = tumor and blood, read-out: Tumor-to-Blood ratio
# [3] = tumor and bone, read-out: Tumor-to-Bone ratio
# [4] = tumor and heart, read-out: Tumor-to-Heart ratio
# [5] = tumor and intestine, read-out: Tumor-to-Intestine ratio
# [6] = tumor and kidney, read-out: Tumor-to-Kidney ratio
# [7] = tumor and liver, read-out: Tumor-to-Liver ratio
# [8] = tumor and lung, read-out: Tumor-to-Lung ratio
# [9] = tumor and muscle, read-out: Tumor-to-Muscle ratio
# [10] = tumor and pancreas, read-out: Tumor-to-Pancreas ratio
# [11] = tumor and spleen, read-out: Tumor-to-Spleen ratio
# [12] = tumor and stomach, read-out: Tumor-to-Stomach ratio
# [13] = adrenal, read-out: Uptake in Adrenal
# [14] = blood, read-out: Uptake in Blood
# [15] = heart, read-out: Uptake in Heart
# [16] = intestine, read-out: Uptake in Intestine
# [17] = kidney, read-out: Uptake in Kidney
# [18] = liver, read-out: Uptake in Liver
# [19] = muscle, read-out: Uptake in Muscle
# [20] = pancreas, read-out: Uptake in Pancreas
# [21] = spleen, read-out: Uptake in Spleen
# [22] = stomach, read-out: Uptake in Stomach
# [23] = tumor, read-out: Uptake in Tumor
Structure (SMILES),Tumor-to-Adrenal ratio (PC-3 tumor xenograft),"tissue to tissue ratio at 1 h [1, 2]","tissue to tissue ratio at 1 h [1, 3]","tissue to tissue ratio at 1 h [1, 4]","tissue to tissue ratio at 1 h [1, 5]","tissue to tissue ratio at 1 h [1, 6]","tissue to tissue ratio at 1 h [1, 7]","tissue to tissue ratio at 1 h [1, 8]","tissue to tissue ratio at 1 h [1, 9]","tissue to tissue ratio at 1 h [1, 10]","tissue to tissue ratio at 1 h [1, 11]","tissue to tissue ratio at 1 h [1, 12]","tissue uptake at 1 h [1, 13]","tissue uptake at 1 h [1, 14]","tissue uptake at 1 h ([1]; bone, read-out: Uptake in Bone)","tissue uptake at 1 h [1, 15]","tissue uptake at 1 h [1, 16]","tissue uptake at 1 h [1, 17]","tissue uptake at 1 h [1, 18]","tissue uptake at 1 h ([1]; lung, read-out: Uptake in Lung)",further results
"CC(C)C[C@H](NC(=O)C[C@H](O)[C@H](CC(C)C)NC(=O)[C@H](Cc1c[nH]cn1)NC(=O)CNC(=O)[C@@H](NC(=O)[C@H](C)NC(=O)[C@H](Cc1csc2ccccc12)NC(=O)[C@H](CCC(N)=O)NC(=O)[C@@H](Cc1ccccc1)NC(=O)CN1CCC(NC(=O)CN2CCN(CC(=O)O)CCN(CC(=O)O)CCN(CC(=O)O)CC2)CC1)C(C)C)C(N)=O [[^68Ga]Ga-[Bta^8]RM2, metal not drawn] ({DOTA}-[X1][dF]Q[Bta]AVGH[Sta]L-NH2)",13.3 ± 17.2,7.6 ± 2.6,29.5 ± 8.2,19.8 ± 5,12.2 ± 4.5,3.3 ± 0.6,10.7 ± 2.3,8.8 ± 3,50.6 ± 19.4,1.9 ± 1.3,18.7 ± 6.9,7.1 ± 0.7,1.95 ± 1.3 %ID/g,1.07 ± 0.27 %ID/g,0.3 ± 0.15 %ID/g,0.4 ± 0.1 %ID/g,0.66 ± 0.14 %ID/g,2.33 ± 0.25 %ID/g,0.73 ± 0.17 %ID/g,0.92 ± 0.22 %ID/g,"tissue uptake at 1 h [1, 19]: 0.19 ± 0.11 %ID/g; tissue uptake at 1 h [1, 20]: < 8 %ID/g; tissue uptake at 1 h [1, 21]: 0.46 ± 0.16 %ID/g; tissue uptake at 1 h [1, 22]: 1.07 ± 0.14 %ID/g; tissue uptake at 1 h [1, 23]: ~7.5 %ID/g"
"CC(C)C[C@H](NC(=O)C[C@H](O)[C@H](CC(C)C)NC(=O)[C@H](Cc1c[nH]cn1)NC(=O)CNC(=O)[C@@H](NC(=O)[C@H](C)NC(=O)[C@H](Cc1c[nH]c2ccccc12)NC(=O)[C@H](CCO)NC(=O)[C@@H](Cc1ccccc1)NC(=O)CN1CCC(NC(=O)CN2CCN(CC(=O)O)CCN(CC(=O)O)CCN(CC(=O)O)CC2)CC1)C(C)C)C(N)=O [[^68Ga]Ga-[Hse^7]RM2, metal not drawn] ({DOTA}-[X1][dF][hSer]WAVGH[Sta]L-NH2)",1.4 ± 1.1,1.9 ± 0.1,7.8 ± 0.7,6 ± 0.9,5 ± 0.3,2.2 ± 0.2,5.1 ± 0.5,3.3 ± 0.6,22.8 ± 3.4,0.9 ± 0.1,5 ± 0.7,4.1 ± 0.3,2.47 ± 0.3 %ID/g,3.92 ± 0.07 %ID/g,0.98 ± 0.12 %ID/g,1.29 ± 0.14 %ID/g,1.52 ± 0.1 %ID/g,3.51 ± 0.2 %ID/g,1.49 ± 0.06 %ID/g,2.33 ± 0.28 %ID/g,"tissue uptake at 1 h [1, 19]: 0.34 ± 0.04 %ID/g; tissue uptake at 1 h [1, 20]: < 8 %ID/g; tissue uptake at 1 h [1, 21]: 1.55 ± 0.15 %ID/g; tissue uptake at 1 h [1, 22]: 1.88 ± 0.06 %ID/g; tissue uptake at 1 h [1, 23]: ~7.5 %ID/g"
